Measured values from US20220117845A1, “COMPOSITION AND CONTAINER, KIT, METHOD OF USE” (NTC S.R.L., priority 2019, published 2022).

Columns and labels:
[1] = Dissolution study as a function of the pH value of water; assay type: physicochemical; details: 150 g in 900 ml of water
Source text: The solubility of the mannitol powder was then studied in the following three types of non-carbonated commercial waters: • Sangemini: pH at source 6.2; • Antica Fonte Boario: pH at source 7.0; • Panna Toscana: pH at source 8.0.

[2] = Bulk density of the powder; assay type: physicochemical; details: after passing through drum centrifugal sieve shaker, mesh 3 mm clear span; measured in the laboratory
Description: As regards the bulk density outlined above, in particular the poured bulk density, such parameter is measured according to the European Pharmacopoeia reference standard (Ph. Eur.), current edition 2.2.42, in force at the priority date of this patent application. In the context of the present invention, the expression ‘bulk’ implies that the powder density value is calculated in a manner formally analogous to an absolute density (such as for a solid body or for a liquid). However, since a powder has empty inter-particle spaces, the total volume occupied by the powder (i.e. its outer bulk), thus including the inter-particle spaces between the various particles, should be taken into account when evaluating bulk density. More precisely, according to the aforementioned regulation, a 100 ml class A graduated flask is filled and brought to volume with the powder particles, after which the bulk density is calculated as the ratio between the weight of the powder contained in the flask and the volume (100 ml) occupied by that weight of the powder particles.

OC[C@@H](O)[C@@H](O)[C@H](O)[C@H](O)CO [mannitol]
time for complete dissolution ([1]; weakly acidic or neutral pH): more than 6 minutes | time for complete dissolution relative to weakly acidic or neutral pH ([1]; weakly basic pH): substantially half as much | transient density [2]: about 0.73 g/ml
